Tests used:
[1] = test system: monoamine transporters; experiment: Binding of CLAV to monoamine transporters
[2] = test system: nucleus accumbens; experiment: Microdialysis of extracellular neurotransmitter levels after IP CLAV; assay type: in vivo, Sprague Dawley rats
Experimental: To test this hypothesis, extracellular neurotransmitter levels in the area of the nucleus accumbens were assessed with microdialysis following CLAV treatment. The accumbens is part of the limbic forebrain best now for its association with the pathophysiology of schizophrenia and drug addiction but also thought to be involved in sensitization to early life trauma leading to the anxiety disorder PTSD or post traumatic stress disorder ([…] and Bremner 1999). Ten male, Sprague Dawley rats were anesthetized with sodium pentobarbital (50 mg/kg) and implanted with a unilateral microdialysis guide cannula aimed at the nucleus accumbens. Two days after recovery from surgery a microdialysis probe (2 mm) was lowered to the area and connected to an infusion pump through Tygon tubing. The dialysate was artificial CSF at pH 7.4 delivered at a flow rate of 2 μl/min. The first 120 min of dialysate will be discarded. Thereafter, samples were collected at 30 min intervals prior to and following IP CLAV treatment (10 μg/kg). Samples were collected into microfuge tubes containing 5 μl of 0.16 N perchloric acid to stabilize catecholamines. At the end of the study, animals were sacrificed and the brains prepared for histology to verify the site of the microdialysis probe.

[3] = test system: cotton-top tamarin (Saguinus oedipus); experiment: Novel object test for anxiolytic activity in cotton-top tamarins; assay type: in vivo; conditions: oral 1 mg/kg, three doses a day for two days
Experimental: Eight male/female pairs of tamarins with long standing pair bonds were tested following oral treatments of CLAV and vehicle (VEH) control. There were no offspring since males were vasectomized. Both members of a pair received the same treatments at the same times. Each animal served as its own control being tested both with CLAV or VEH one week apart. The treatment schedule was counter-balanced. CLAV was dissolved in water and dispensed onto a small cookie in a volume of 100 μl. A single CLAV cookie was given to each member of a pair at an approximate dose of 1 mg/kg body weight. Animals were given three CLAV cookies each day for two consecutive days. The 1st cookie was given at 8:00 AM prior to the morning feeding, the 2nd at 11:00 AM prior to the noon feeding and the 3rd at 2:00 PM prior to the late afternoon snack. All animals were scored for anti-anxiety activity 60 min after the 3rd treatment on the second day.
Two observers blind to the treatment independently scored behavioral activity. To elicit anxious/stressful behavior a novel object was placed into the home cage. A different novel object was used for each test session and the object presentation was counter-balanced. Following the presentation of the novel object animals were scored for a duration of 15 min for: 1) latency to approach and latency to touch the object, 2) time spent in contact or proximity with the object, 3) face and head movement (frowns, head shakes and head cocks that reflect tension), 4) scratching (a validated measure of anxiety in macaques), 5) piloerection (autonomic stress response), and 6) visual scanning (nervous vigilance).

[4] = molecular target: T1, monoamine oxidase A (Homo sapiens, UniProt P21397); experiment: Binding of CLAV to monoamine oxidase A
T1 sequence (P21397 1-527): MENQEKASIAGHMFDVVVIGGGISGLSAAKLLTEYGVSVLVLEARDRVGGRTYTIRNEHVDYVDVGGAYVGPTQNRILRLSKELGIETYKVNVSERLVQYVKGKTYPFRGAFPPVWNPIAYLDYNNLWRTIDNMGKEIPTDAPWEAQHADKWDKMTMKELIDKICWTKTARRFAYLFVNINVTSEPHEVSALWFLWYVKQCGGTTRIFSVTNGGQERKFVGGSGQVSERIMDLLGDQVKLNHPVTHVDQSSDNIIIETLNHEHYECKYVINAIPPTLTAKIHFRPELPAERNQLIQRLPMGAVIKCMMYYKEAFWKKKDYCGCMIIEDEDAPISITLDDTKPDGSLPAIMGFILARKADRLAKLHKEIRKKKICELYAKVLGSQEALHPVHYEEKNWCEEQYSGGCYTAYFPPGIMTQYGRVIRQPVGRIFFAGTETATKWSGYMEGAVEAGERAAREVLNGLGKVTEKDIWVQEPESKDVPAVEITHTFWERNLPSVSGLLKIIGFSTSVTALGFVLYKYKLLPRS

[5] = test system: cotton-top tamarin (Saguinus oedipus); experiment: Scoring of erections, mounts and female solicitations in cotton-top tamarins; assay type: in vivo; conditions: oral 1 mg/kg
[6] = Pharmacokinetic assessment of CLAV run by IVEDCO; conditions: from plasma 2.5 μg/ml and CSF/plasma ratio 0.25
Experimental: This treatment regimen of three doses each day for two consecutive days was chosen to acclimate the animals to the treatment procedure (day 1) and to achieve steady-state blood concentration before testing (day 2). A pharmacokinetic assessment of CLAV was run by IVEDCO (Irving Tex.) which estimated an oral dose of 1 mg/kg every three hrs would produce steady-state levels yielding an average plasma concentration of 2.5 μg/ml at the time of testing. Since the CSF/plasma ratio is 0.25 the estimated concentration in the brain would be around 0.3 μM. Given the rate of clearance of CLAV, treatments from day 1 should not have contributed to blood levels of drug on day 2.

[7] = test system: well known signaling receptors or transporters; experiment: Binding of CLAV to well known signaling receptors or transporters
[8] = test system: prefrontal cortex and nucleus accumbens; conditions: Cartmell et al., 2000b; Hertel et al. 1997; cited from earlier work

O=C(O)[C@H]1/C(=C/CO)O[C@@H]2CC(=O)N21 [CLAV, clavulanic acid]
binding to monoamine transporters [1]: Neither the monoamine transporters nor the degradative enzyme monoamine oxidase A show binding | DOPAC levels ([2]; IP 10 μg/kg, AC-1 to AC-5): only rose in two cases | changes in dopamine and serotonin neurotransmission, probe outside the nucleus accumbens ([2]; IP 10 μg/kg, lateral ventricle, bed nucleus of stria terminalis, head of the caudate, ventrolateral thalamus): little if any changes | dopamine metabolite 3,4-dihydroxyphenylacetic acid (DOPAC) over time ([2]; animal AC-1, IP 10 μg/kg): robust increase | dopamine metabolite homovanillic acid (HVA) over time ([2]; animal AC-1, IP 10 μg/kg): robust increase | dopamine over time ([2]; animal AC-1, IP 10 μg/kg): modest decrease | extracellular levels of serotonin over time ([2]; animal AC-1, IP 10 μg/kg): increase | serotonin metabolite 5-hydroxyindoleacetic acid (HIAA) over time ([2]; animal AC-1, IP 10 μg/kg): robust increase | latency to approach the novel object, CLAV vs VEH [3]: no significant difference | latency to touch the novel object, CLAV vs VEH [3]: no significant difference | time spent in proximity to the object, CLAV vs VEH [3]: Neither was there any difference | combined measures of anxious/nervous behaviors (3, 4, 5 & 6) ([3]; scored 15 min, 60 min after 3rd treatment on day 2, p<0.05 vs VEH): 12.7+4.8 | binding to monoamine oxidase A [4]: Neither the monoamine transporters nor the degradative enzyme monoamine oxidase A show binding | females showing solicitation behaviors ([5]; eight females, three doses a day for two days): Two of the eight | males showing at least one erection in 15 min ([5]; eight males, three doses a day for two days): All eight | mean erections in 15 min ([5]; males, three doses a day for two days): 2.25 erections in 15 min | rate of erections ([5]; males, p<0.02 vs VEH): 9.0 erections per hour | mounting behavior, CLAV vs VEH ([5]; three doses a day for two days): no significant difference | estimated concentration in the brain [6]: around 0.3 μM | binding to well known signaling receptors or transporters [7]: does not appear to bind

Cc1nc2n(c(=O)c1CCN1CCC(c3noc4cc(F)ccc34)CC1)CCCC2 [risperidone]
dopamine and serotonin neurotransmission in the prefrontal cortex and nucleus accumbens [8]: increase

Source: patent US7998991B2, “Neurotherapeutic treatment for sexual dysfunction” (Revaax Pharmaceuticals, LLC, priority 2001, dated 2011)
